Laboratory results published in ChEMBL document CHEMBL2406972, “Synthesis and antitumor activities of novel dibenzo[b,d]furan-imidazole hybrid compounds” (Eur J Med Chem, 2013).

Experiments:
Type in all cases: functional, cell-based
SW480 = experiment: Cytotoxicity against human SW480 cells after 48 hrs by MTT assay; details: SW480, 48 h
MCF7 = experiment: Cytotoxicity against human MCF7 cells after 48 hrs by MTT assay; details: MCF7, 48 h
A549 = experiment: Cytotoxicity against human A549 cells after 48 hrs by MTT assay; details: A549, 48 h
HL-60 = experiment: Cytotoxicity against human HL60 cells after 48 hrs by MTT assay; details: HL-60, 48 h
SMMC-7721 = experiment: Cytotoxicity against human SMMC7721 cells after 48 hrs by MTT assay; details: SMMC-7721, 48 h

Row | SMILES | IC50 (SW480) [µM] | IC50 (MCF7) [µM] | IC50 (A549) [µM] | IC50 (HL-60) [µM] | IC50 (SMMC-7721) [µM]
1 | CC(c1ccc2oc3ccccc3c2c1)n1c[n+](CC(=O)c2ccc(F)cc2)c2ccccc21 (stereo not given) | 9.77 | 3.85 | 13.7 | 1.67 | 6.31
2 | Cc1n(C(c2ccccc2)c2ccc3oc4ccccc4c3c2)cc[n+]1CC(=O)c1ccc(O)cc1 (stereo not given) | 14.3 | 11.8 | 26.2 | 3.92 | 8.84
3 | c1ccc(C(c2ccc3oc4ccccc4c3c2)n2ccnc2)cc1 (stereo not given) | > 40 | > 40 | 24.6 | 21 | 33.7
4 | c1ccc(C(c2ccc3oc4ccccc4c3c2)n2cnc3ccccc32)cc1 (stereo not given) | > 40 | 20.9 | 23.4 | 17.2 | 25.4
5 | Cc1n(C(C)c2ccc3oc4ccccc4c3c2)cc[n+]1CC(=O)c1ccc2ccccc2c1 (stereo not given) | 3.09 | 1.65 | 3.86 | 0.6 | 2.15
6 | CC(c1ccc2oc3ccccc3c2c1)n1c[n+](CC(=O)c2ccc(Br)cc2)c2ccccc21 (stereo not given) | 3.18 | 3.08 | 3.54 | 0.66 | 2.62
7 | CC(c1ccc2oc3ccccc3c2c1)n1cc[n+](CC(=O)c2ccc(F)cc2)c1 (stereo not given) | 16.4 | 16.7 | 22.6 | 2.64 | 17.5
8 | Cc1n(C(C)c2ccc3oc4ccccc4c3c2)cc[n+]1CC(=O)c1ccc(O)cc1 (stereo not given) | 37.5 | 26.4 | 28.6 | 12.2 | 13.3
9 | Cc1n(C(C)c2ccc3oc4ccccc4c3c2)cc[n+]1CC(=O)c1ccc(F)cc1 (stereo not given) | 12.3 | 16.2 | 15.4 | 2.96 | 4.7
10 | CC(c1ccc2oc3ccccc3c2c1)n1cc[n+](CC(=O)c2ccccc2)c1 (stereo not given) | 14.4 | 14.1 | 27 | 2.55 | 12.1
11 | CCCC[n+]1ccn(C(C)c2ccc3oc4ccccc4c3c2)c1 (stereo not given) | 24.1 | 9.11 | 12.8 | 5.63 | 14.2
12 | O=C(C[n+]1cn(C(c2ccccc2)c2ccc3oc4ccccc4c3c2)c2ccccc21)c1ccc(F)cc1 (stereo not given) | 3.6 | 1.87 | 12.1 | 2.18 | 3.57
13 | Cc1nccn1C(C)c1ccc2oc3ccccc3c2c1 (stereo not given) | 21.4 | 18.7 | 16.2 | 10.9 | > 40
14 | O=[N+]([O-])c1ccc(C[n+]2ccn(C(c3ccccc3)c3ccc4oc5ccccc5c4c3)c2)cc1 (stereo not given) | 19.1 | 10.3 | 28.6 | 10.8 | 15.3
15 | Cc1n(C(c2ccccc2)c2ccc3oc4ccccc4c3c2)cc[n+]1CC(=O)c1ccc2ccccc2c1 (stereo not given) | 2.62 | 2.31 | 3.78 | 0.98 | 2.57
16 | CCCC[n+]1cn(C(c2ccccc2)c2ccc3oc4ccccc4c3c2)c2ccccc21 (stereo not given) | 8 | 3.37 | 4.61 | 1.12 | 2.93
17 | Cc1n(C(C)c2ccc3oc4ccccc4c3c2)cc[n+]1CC(=O)c1ccccc1 (stereo not given) | 10.1 | 4.49 | 17.9 | 2.85 | 3.02
18 | CCCC[n+]1cn(C(C)c2ccc3oc4ccccc4c3c2)c2ccccc21 (stereo not given) | 11.1 | 9.41 | 8.55 | 1.67 | 3.78
19 | CC(c1ccc2oc3ccccc3c2c1)n1cc[n+](Cc2ccc([N+](=O)[O-])cc2)c1 (stereo not given) | > 40 | 13.8 | > 40 | 11.3 | 22.5
20 | O=C(C[n+]1ccn(C(c2ccccc2)c2ccc3oc4ccccc4c3c2)c1)c1ccc2ccccc2c1 (stereo not given) | 2.57 | 2.78 | 5.86 | 1.91 | 3.61
21 | O=[N+]([O-])c1ccc(C[n+]2cn(C(c3ccccc3)c3ccc4oc5ccccc5c4c3)c3ccccc32)cc1 (stereo not given) | 16.7 | 9.26 | 21.7 | 4.6 | 13.2
22 | COc1ccc(C(=O)C[n+]2ccn(C(C)c3ccc4oc5ccccc5c4c3)c2)cc1 (stereo not given) | 12.7 | 9.02 | 12.2 | 3.45 | 9.98
23 | Cc1n(C(c2ccccc2)c2ccc3oc4ccccc4c3c2)cc[n+]1CC(=O)c1ccc(Br)cc1 (stereo not given) | 1.98 | 3.45 | 9.46 | 2.25 | 3.93
24 | O=C(C[n+]1ccn(C(c2ccccc2)c2ccc3oc4ccccc4c3c2)c1)c1ccccc1 (stereo not given) | 9.05 | 6.29 | 17.7 | 2.14 | 11.4

Row | SMILES | IC50 (SW480) [µM] | IC50 (MCF7) [µM] | IC50 (A549) [µM] | IC50 (HL-60) [µM] | IC50 (SMMC-7721) [µM]
25 | CC(c1ccc2oc3ccccc3c2c1)n1c[n+](CC(=O)c2ccccc2)c2ccccc21 (stereo not given) | 14.6 | 12.5 | 18.1 | 2.46 | 8.51
26 | COc1ccc(C(=O)C[n+]2ccn(C(C)c3ccc4oc5ccccc5c4c3)c2C)cc1 (stereo not given) | 5.78 | 1.29 | 3.02 | 0.7 | 1.43
27 | O=C(C[n+]1ccn(C(c2ccccc2)c2ccc3oc4ccccc4c3c2)c1)c1ccc(O)cc1 (stereo not given) | 15.2 | 7.05 | 6.8 | 2.61 | 6.28
28 | O=C(C[n+]1cn(C(c2ccccc2)c2ccc3oc4ccccc4c3c2)c2ccccc21)c1ccccc1 (stereo not given) | 3.54 | 2.5 | 13.6 | 2.3 | 4.61
29 | Cc1n(C(c2ccccc2)c2ccc3oc4ccccc4c3c2)cc[n+]1Cc1ccc([N+](=O)[O-])cc1 (stereo not given) | 18.2 | 15.3 | > 40 | 8.74 | 18.5
30 | CC(c1ccc2oc3ccccc3c2c1)n1cnc2ccccc21 (stereo not given) | > 40 | > 40 | > 40 | > 40 | > 40
31 | Cc1n(C(c2ccccc2)c2ccc3oc4ccccc4c3c2)cc[n+]1CC(=O)c1ccc(F)cc1 (stereo not given) | 1.89 | 3.23 | 4.88 | 2.13 | 4.22
32 | COc1ccc(C(=O)C[n+]2ccn(C(c3ccccc3)c3ccc4oc5ccccc5c4c3)c2C)cc1 (stereo not given) | 3.73 | 2.42 | 1.9 | 0.59 | 2.08
33 | O=C(C[n+]1ccn(C(c2ccccc2)c2ccc3oc4ccccc4c3c2)c1)c1ccc(Br)cc1 (stereo not given) | 2.11 | 3.32 | 7.7 | 2.13 | 10.8
34 | O=C(C[n+]1cn(C(c2ccccc2)c2ccc3oc4ccccc4c3c2)c2ccccc21)c1ccc(O)cc1 (stereo not given) | 15.6 | 9.15 | 17.7 | 2.89 | 10.8
35 | CC(c1ccc2oc3ccccc3c2c1)n1c[n+](CC(=O)c2ccc3ccccc3c2)c2ccccc21 (stereo not given) | 2.95 | 3.14 | 3.46 | 1.65 | 2.24
36 | O=C(C[n+]1cn(C(c2ccccc2)c2ccc3oc4ccccc4c3c2)c2ccccc21)c1ccc(Br)cc1 (stereo not given) | 3.83 | 2.91 | 3.8 | 2.1 | 3.36
37 | Cc1n(C(C)c2ccc3oc4ccccc4c3c2)cc[n+]1CC(=O)c1ccc(Br)cc1 (stereo not given) | 11.8 | 6.77 | 12.8 | 2.67 | 6.4
38 | CCCC[n+]1ccn(C(c2ccccc2)c2ccc3oc4ccccc4c3c2)c1 (stereo not given) | 13.1 | 6.03 | 11.4 | 1.1 | 8.13
39 | CC(c1ccc2oc3ccccc3c2c1)n1cc[n+](CC(=O)c2ccc3ccccc3c2)c1 (stereo not given) | 3.69 | 3.5 | 8.46 | 2.46 | 6.43
40 | CC(c1ccc2oc3ccccc3c2c1)n1cc[n+](CC(=O)c2ccc(O)cc2)c1 (stereo not given) | > 40 | > 40 | > 40 | > 40 | > 40
41 | CC(c1ccc2oc3ccccc3c2c1)n1ccnc1 (stereo not given) | > 40 | > 40 | > 40 | > 40 | > 40
42 | CCCC[n+]1ccn(C(C)c2ccc3oc4ccccc4c3c2)c1C (stereo not given) | 10 | 6.6 | 13 | 3.08 | 7.98
43 | CC(c1ccc2oc3ccccc3c2c1)n1c[n+](CC(=O)c2ccc(O)cc2)c2ccccc21 (stereo not given) | 16.3 | 14.2 | 20.1 | 2.35 | 24.1
44 | CC(c1ccc2oc3ccccc3c2c1)n1c[n+](C(C(=O)c2ccccc2)c2ccccc2)c2ccccc21 (stereo not given) | 10.5 | 9.35 | 12.7 | 2.79 | 5.4
45 | O=C(c1ccccc1)C(c1ccccc1)[n+]1ccn(C(c2ccccc2)c2ccc3oc4ccccc4c3c2)c1 (stereo not given) | 2.36 | 1.46 | 3.75 | 0.52 | 2.38
46 | Cc1n(C(C)c2ccc3oc4ccccc4c3c2)cc[n+]1Cc1ccc([N+](=O)[O-])cc1 (stereo not given) | > 40 | > 40 | > 40 | 14.6 | > 40
47 | CC(c1ccc2oc3ccccc3c2c1)n1cc[n+](CC(=O)c2ccc(Br)cc2)c1 (stereo not given) | 6.85 | 4.08 | 13.7 | 2.95 | 11
48 | COc1ccc(C(=O)C[n+]2cn(C(c3ccccc3)c3ccc4oc5ccccc5c4c3)c3ccccc32)cc1 (stereo not given) | 5.56 | 4.78 | 3.34 | 0.64 | 2.1
